In brackets after ≈: the same amount, converted by molar mass. Where two headings read alike, the source gives them in different places.
Tests used:
[1] = test system: methicillin-resistant S. aureus (FPR3757); experiment: MIC against methicillin-resistant S. aureus; assay type: cell-based, Staphylococcus aureus; details: for MIC: complete inhibition of observable growth, Mueller–Hinton broth
[2] = test system: S. aureus (strain USA300); experiment: Transmission electron microscopy of treated MRSA; assay type: cell-based; details: 1× MIC
[3] = test system: MRSA; experiment: MRSA MIC in the presence of serum; assay type: cell-based; details: Staphylococcus aureus
[4] = test system: sheep erythrocytes; details: washed sheep erythrocytes; at 32 μg/mL; compared to Triton X-100 (100% lysis)
[5] = test system: C. albicans; experiment: Antimicrobial susceptibility panel: MIC against C. albicans; assay type: cell-based; details: Candida albicans, SC5314
[6] = Single-dose in vivo pharmacokinetics; details: mice
[7] = Kinetic aqueous solubility by LC-MS/MS; details: pH 7.4
[8] = test system: S. aureus (strain COL); experiment: Fluorescence microscopy of membrane, cell wall and DNA in MRSA; assay type: cell-based; details: 1× MIC, 30 min

Row | SMILES | MIC ([1]; Staphylococcus aureus) | further results
1 | CSc1cccc(Nc2cc(C(F)(F)F)nc3cc(C(F)(F)F)ccc23)c1 [Compound 24] | 0.25 to 0.5 µg/mL (≈ 0.621 to 1.24 µM) | –
2 | Oc1cc(C(F)(F)F)nc2c(C(F)(F)F)cccc12 [Compound 4] | 2 to 4 µg/mL (≈ 7.11 to 14.2 µM) | –
3 | FC(F)(F)c1ccc2c(Nc3cc(Cl)ccn3)cc(C(F)(F)F)nc2c1 [Compound 48] | – | loss of activity (MIC) relative to 31 [1]: 8 fold
4 | FC(F)(F)Oc1ccc2c(Nc3ccc(Cl)c(Cl)c3)cc(C(F)(F)F)nc2c1 [Compound 32] | 0.5 to 1 µg/mL (≈ 1.13 to 2.27 µM) | –
5 | FC(F)(F)c1ccc(Nc2cc(N3CCNCC3)c3ccc(C(F)(F)F)cc3n2)nc1 [Compound 106] | 4 to 8 µg/mL (≈ 9.06 to 18.1 µM) | –
6 | CCc1ccc2c(O)cc(C(F)(F)F)nc2c1 [Compound 8] | 320 to 640 µg/mL (≈ 1330 to 2650 µM) | –
7 | FC(F)(F)c1ccc(Nc2cc(C(F)(F)F)nc3cc(C(F)(F)F)ccc23)nc1 [Compound 31, 2,7-Bis(trifluoromethyl)-4-[5-(trifluoromethyl)pyridin-2-yl-amino]quinoline] | – | cell morphology by TEM [2]: mesosome-like membrane inclusions; MIC ([3]; read-out: MIC + 10% FBS): 4 to 8 µg/mL
8 | Fc1cc2nc(C(F)(F)F)cc(Nc3ccc(C(F)(F)F)cn3)c2cc1F [Compound 78] | – | hemolysis [4]: hemolysis
9 | CSc1ccc2c(O)cc(C(F)(F)F)nc2c1 [Compound 10] | 320 to 640 µg/mL (≈ 1230 to 2470 µM) | –
10 | Fc1ccc2c(Nc3ccc(Cl)c(Cl)c3)cc(C(F)(F)F)nc2c1 [Compound 74] | 0.5 to 2 µg/mL (≈ 1.33 to 5.33 µM) | –
11 | O=c1cc(C(F)(F)F)[nH]c2cc(C(F)(F)F)ccc12 [Compound 2, 2,7-Bis-(trifluoromethyl)quinolin-4-ol] | 4 to 8 µg/mL (≈ 14.2 to 28.5 µM) | –
12 | Fc1ccc(Nc2cc(C(F)(F)F)nc3cc(C(F)(F)F)ccc23)cc1F [Compound 21] | 0.125 to 0.25 µg/mL (≈ 0.319 to 0.637 µM) | –
13 | Fc1ccc2c(Nc3ccc(C(F)(F)F)cn3)cc(C(F)(F)F)nc2c1 [Compound 76] | 0.5 to 2 µg/mL (≈ 1.33 to 5.33 µM) | –
14 | Fc1ccc2nc(C(F)(F)F)cc(Nc3ccc(C(F)(F)F)cn3)c2c1F [Compound 77] | 16 to 32 µg/mL (≈ 40.7 to 81.4 µM) | –
15 | O=c1cc(C(F)(F)F)[nH]c2cc(C(F)(F)F)cc(Nc3ccc(C(F)(F)F)cn3)c12 [Compound 111, 5-[(5-Trifluoromethylpyridin-2-yl)amino]-2,7-bis-(trifluoromethyl)quinolin-4(1H)-one] | – | MIC [5]: 256 µg/mL (≈ 580 µM); cell morphology by TEM [2]: mesosome-like membrane inclusions; MIC ([3]; read-out: MIC + 10% human serum): 4 to 8 µg/mL; MIC ([3]; read-out: MIC + 10% mouse serum): 4 to 8 µg/mL; MIC ([3]; read-out: MIC + 30% FBS): 4 to 8 µg/mL; hemolysis [4]: devoid of hemolytic activity; time total plasma concentrations stay above the MIC (<0.0625 μg/mL) ([6]; following i.v. dosing at 0.5 mg/kg): ~9 h; time total plasma concentrations stay above the MIC (<0.0625 μg/mL) ([6]; following oral dosing at 10 mg/kg): ~9 h; solubility at 6 h [7]: 2.4 ± 0.4 ng/mL (≈ 0.00544 µM)
16 | FC(F)(F)Oc1cccc(Nc2cc(C(F)(F)F)nc3cc(OC(F)(F)F)ccc23)c1 [Compound 33] | 0.5 to 1 µg/mL (≈ 1.1 to 2.19 µM) | –
17 | FC(F)(F)c1ccc2c(Nc3nccs3)cc(C(F)(F)F)nc2c1 [Compound 55] | 1 to 2 µg/mL (≈ 2.75 to 5.51 µM) | –
18 | COc1ccc2c(O)cc(C(F)(F)F)nc2c1 [Compound 9] | 320 to 640 µg/mL (≈ 1320 to 2630 µM) | –
19 | FC(F)(F)c1ccc2c(Nc3ccc(Cl)cc3)cc(C(F)(F)F)nc2c1 [Compound 17] | 0.125 to 0.25 µg/mL (≈ 0.32 to 0.64 µM) | –
20 | Fc1ccc(Nc2nc(C(F)(F)F)nc3nc(C(F)(F)F)ccc23)cc1F [Compound 94, N-(3,4-Difluorophenyl)-2,7-bis(trifluoromethyl)pyrido[2,3-d]-pyrimidin-4-amine] | ≥ 32 µg/mL | –
21 | FC(F)(F)c1ccc(Nc2cc(N3CCNCC3)nc3cc(C(F)(F)F)ccc23)nc1 [Compound 105, 2-(Piperazin-1-yl)-7-(trifluoromethyl)-4-{[5-(trifluoro-methyl)-pyridin-2-yl]amino}quinoline] | 0.5 to 1 µg/mL (≈ 1.13 to 2.27 µM) | MIC [1]: 0.5 to 1 µg/mL
22 | Oc1cc(C(F)(F)F)nc2cc(OC(F)(F)F)ccc12 [Compound 3] | 4 to 8 µg/mL (≈ 13.5 to 26.9 µM) | –
23 | FC(F)(F)Oc1ccc2c(Nc3ccc(C(F)(F)F)cn3)cc(C(F)(F)F)nc2c1 [Compound 34] | 0.5 to 1 µg/mL (≈ 1.13 to 2.27 µM) | –
24 | O=c1cc(C(F)(F)F)[nH]c2cc(F)cc(Nc3ccc(C(F)(F)F)cn3)c12 [Compound 122] | – | FM 4–64 membrane staining by fluorescence microscopy [8]: membrane defects
25 | O=c1cc(C(F)(F)F)[nH]c2cc(C(F)(F)F)cc(Nc3ccc(F)cn3)c12 [Compound 114] | 0.125 to 2 µg/mL (≈ 0.319 to 5.11 µM) | –
26 | FC(F)(F)c1ccc2c(Nc3cccc(Cl)c3)cc(C(F)(F)F)nc2c1 [Compound 16] | 0.125 to 0.25 µg/mL (≈ 0.32 to 0.64 µM) | –
27 | O=c1cc(C(F)(F)F)[nH]c2cc(C(F)(F)F)cc(N[C@H]3CC[C@H](C(F)(F)F)CC3)c12 [Compound 120] | – | cell morphology by TEM [2]: mesosome-like membrane inclusions; FM 4–64 membrane staining by fluorescence microscopy [8]: membrane defects
28 | Fc1cccc(Nc2cc(C(F)(F)F)nc3cc(C(F)(F)F)ccc23)c1 [Compound 18] | 4 to 16 µg/mL (≈ 10.7 to 42.8 µM) | –
29 | FC(F)(F)c1ccc(Nc2cc(N3CCOCC3)c3ccc(C(F)(F)F)cc3n2)nc1 [Compound 108] | 4 to 8 µg/mL (≈ 9.04 to 18.1 µM) | –
30 | FC(F)(F)c1ccc2c(Nc3ccc(C(F)(F)F)nc3)cc(C(F)(F)F)nc2c1 [Compound 49] | – | MIC [1]: completely abolished activity
